# Data published in patent publication US11220510B2, “Pyrrole tricyclic compounds as A2A / A2B inhibitors” (Incyte Corporation, priority 2018, dated 2022).
# How the values were obtained:
# [1] = target: Adenosine A2A receptor (Tag-lite Adenosine A2A labeled cells) (Homo sapiens (Human), UniProt P29274); assay: A2A Tag-lite HTRF assay (fluorescent ligand displacement); details: Red antagonist fluorescent ligand 12.5 nM, one-site competitive binding model, read-out: A2A_Ki
# Source text: Example C. A2A Tag-Lite® HTRF Assay
# The final concentration of DMSO was 1%.
# [2] = target: human adenosine A2B receptor (Homo sapiens (Human), UniProt P29275); assay: Adenosine A2B Receptor Cyclic AMP GS Assay; type: cell-based; details: HEK-293 cells expressing human A2B; agonist NECA 12 nM; cAMP accumulation by FRET; read-out: A2B_cAMP_EC50
# Description: Example B. Adenosine A2B Receptor Cyclic AMP GS Assay Stably transfected HEK-293 cells expressing the human adenosine A2B receptor (Perkin Elmer) were maintained in MEM culture medium with 10% FBS and 100 μg/ml Geneticin (Life Technologies). 18 to 24 hours prior to assay, geneticin was removed from culture. The cisbio cAMP-GS Dynamic kit utilizing the FRET (Fluorescence Resonance Energy Transfer) technology was used to measure cAMP accumulation in the cells. Compounds of the present disclosure at an appropriate concentration were mixed with 10000 cells/well in white 96 well half area plates (Perkin Elmer) for 30 min at room temperature gently shaking. Agonist, NECA (R&D Technologies) at 12 nM was added to each well for 60 min at room temperature gently shaking. Detection reagents, d2-labeled cAMP (acceptor) and anti-cAMP cryptate (donor) were added to each well for 60 min at RT gently shaking. Plates were read on Pherastar (BMG Labtech), fluorescence ratio 665/620 was calculated and EC50 determination was performed by fitting the curve of percent of control versus the log of the compound concentration using GraphPad Prism.
# Chain of human adenosine A2B receptor (P29275 whole entry): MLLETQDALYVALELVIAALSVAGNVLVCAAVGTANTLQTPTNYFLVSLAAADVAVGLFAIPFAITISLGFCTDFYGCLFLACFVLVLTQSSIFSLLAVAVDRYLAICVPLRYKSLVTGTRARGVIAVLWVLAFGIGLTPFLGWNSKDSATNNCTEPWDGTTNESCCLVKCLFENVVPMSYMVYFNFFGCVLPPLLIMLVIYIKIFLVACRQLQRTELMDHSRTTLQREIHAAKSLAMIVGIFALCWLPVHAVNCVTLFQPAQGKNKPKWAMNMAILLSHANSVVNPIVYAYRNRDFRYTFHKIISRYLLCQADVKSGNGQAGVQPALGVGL
# Chain of Adenosine A2A receptor (Tag-lite Adenosine A2A labeled cells) (P29274 whole entry): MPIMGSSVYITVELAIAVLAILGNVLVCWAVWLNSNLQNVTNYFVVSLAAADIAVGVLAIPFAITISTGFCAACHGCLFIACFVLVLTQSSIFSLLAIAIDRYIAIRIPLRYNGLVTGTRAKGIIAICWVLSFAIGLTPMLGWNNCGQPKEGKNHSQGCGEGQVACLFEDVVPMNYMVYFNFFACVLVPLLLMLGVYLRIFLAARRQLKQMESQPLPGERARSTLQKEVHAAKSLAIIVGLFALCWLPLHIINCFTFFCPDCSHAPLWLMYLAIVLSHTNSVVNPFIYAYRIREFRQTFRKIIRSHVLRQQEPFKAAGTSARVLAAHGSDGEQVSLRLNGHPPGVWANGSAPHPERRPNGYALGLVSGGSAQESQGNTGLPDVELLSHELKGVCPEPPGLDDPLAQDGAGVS
SMILES,Ki [1] [nM],EC50 [2] [nM]
"CCCCn1c2cc(-c3cnn(C4CN(c5nccc(C#N)n5)C4)c3)[nH]c2c(=O)n2c(C)nnc12 [Example 25, 2-(3-(4-(9-Butyl-3-methyl-5-oxo-6,9-dihydro-5H-pyrrolo[3,2-d][1,2,4]triazolo[4,3-a]pyrimidin-7-yl)-1H-pyrazol-1-yl)azetidin-1-yl)pyrimidine-4-carbonitrile]",< 10,10 to 100
"CCCCCn1c2cc(-c3cnn(C4CN(c5nccc(N)n5)C4)c3)[nH]c2c(=O)n2c(C)nnc12 [Example 21, 7-(1-(1-(4-Aminopyrimidin-2-yl)azetidin-3-yl)-1H-pyrazol-4-yl)-3-methyl-9-pentyl-6,9-dihydro-5H-pyrrolo[3,2-d][1,2,4]triazolo[4,3-a]pyrimidin-5-one]",< 10,10 to 100
"CCCCCn1c2cc(-c3cnn(C4CN(c5nccc(C#N)n5)C4)c3)[nH]c2c(=O)n2c(C)nnc12 [Example 20, 2-(3-(4-(3-Methyl-5-oxo-9-pentyl-6,9-dihydro-5H-pyrrolo[3,2-d][1,2,4]triazolo[4,3-a]pyrimidin-7-yl)-1H-pyrazol-1-yl)azetidin-1-yl)pyrimidine-4-carbonitrile]",< 10,10 to 100
"CCCCCn1c2cc(-c3cnn(Cc4cnc5ccsc5c4)c3)[nH]c2c(=O)n2c(C)nnc12 [Example 4, 3-Methyl-9-pentyl-7-(1-(thieno[3,2-b]pyridin-6-ylmethyl)-1H-pyrazol-4-yl)-6,9-dihydro-5H-pyrrolo[3,2-d][1,2,4]triazolo[4,3-a]pyrimidin-5-one]",< 10,< 10
